The subject of one assay is human lung tumor lines. In words: Cell growth inhibition assay, lung tumor lines. Type of assay: cell-based. Particulars: COR-L23, A549, NCI-H1355, NCI-H1792, NCI-H23, Calu 6 and MV522, range over the lines, read-out: IC50s, single agent. The text has this: (§1) Human breast tumor line, MDA-MB-175-VII, human colon tumor lines, Colo-205, DLD-1, HCT-8, HT-29, LS-1034, NCI-H508, RKO, SW1417, SW1463, SW480, SW837 and T84, and human lung tumor lines, A427, A549, Calu 3, Calu 6, HCC827, NCI-H1155, NCI-H1355, NCI-H1792, NCI-H23, NCI-H727, SW1573 and SW900 were from ATCC. Human breast tumor line EFM-19 was from German Collection of Microorganisms and Cell Cultures. Human lung tumor line COR-L23 was from European Collection of Cell Cultures (UK). Human colon tumor line KM12 and human lung tumor line Hop62 were from National Cancer Institute. MV522 was from University of California at San Diego. All lines were cultured in RPMI 1640 medium containing 10% fetal bovine serum (FBS).
(§2) All cells were cultured for a minimum of 72 hours prior to cell plating. […] ATP levels were determined by adding Cell Titer Glo® (Promega) according to the manufacturer's protocol. Briefly, Cell Titer Glo® was added each plate, incubated for 30 minutes then luminescent signal was read on the SpectraMax L plate reader with a 0.5 sec integration time.
(§3) Inhibition of cell growth was estimated after treatment with compound or combination of compounds for three days and comparing the signal to cells treated with vehicle (DMSO). Cell growth was calculated relative to vehicle (DMSO) treated control wells. […]

The test system of a further assay is SW1463. In words: Cell growth inhibition assay (Cell Titer Glo), SW1463. Type of assay: cell-based. Particulars: Homo sapiens, 72 h; SW1463 colon; KRAS_G12C; PIK3CA/PTEN WT; single agent, 3 days, mean ± std.
Source text: as §1, §2, §3
A general note: Cellular ATP, detected with luciferase, serves as a proxy for viable cell number.

In a further assay the test system is SW1573. Briefly: Cell growth inhibition assay (Cell Titer Glo), SW1573. It counts as cell-based. Particulars: Homo sapiens, 72 h; SW1573 lung; KRAS_G12C; PIK3CA_K111E; single agent, 3 days, mean ± std.
Source text: as §1, §2, §3

In another assay the test system is KM12. Briefly: Cell growth inhibition assay (Cell Titer Glo), KM12. Type of assay: cell-based. The settings on record: Homo sapiens, 72 h; KM12 colon; KRAS/RAF WT; PTEN_K267*; single agent, 3 days, mean ± std.
Source text: as §1, §2, §3

The next assay has as its system NCI-H1792. Briefly: Cell growth inhibition assay (Cell Titer Glo), NCI-H1792. Type of assay: cell-based. Particulars: Homo sapiens, 72 h; NCI-H1792 lung; KRAS_G12C; PIK3CA/PTEN WT; single agent, 3 days, mean ± std.
Source text: as §1, §2, §3

The test system of a further assay is MDA-MB-175-VII. In words: Cell growth inhibition assay (Cell Titer Glo), MDA-MB-175-VII. Type of assay: cell-based, Human. Particulars: for IC50: Homo sapiens, 72 h, MDA-MB-175-VII breast, KRAS/RAF WT, PIK3CA/PTEN WT, single agent, 3 days, mean ± std.
Source text: as §1
All cells were cultured for a minimum of 72 hours prior to cell plating. Cells were assayed in a 96-well tissue culture plate (NUNC 136102) of RPMI medium containing 10% FBS for all cells at 1,000 cells per well. […] ATP levels were determined by adding Cell Titer Glo® (Promega) according to the manufacturer's protocol. Briefly, Cell Titer Glo® was added each plate, incubated for 30 minutes then luminescent signal was read on the SpectraMax L plate reader with a 0.5 sec integration time.
as §3
Combination effects on potency were evaluated using Combination Index (CI) which was calculated with the back-interpolated IC50 values and the mutually non-exclusive equation derived by Chou and Talalay (1): […]
The combination effects on the response scale were quantified by Excess Over Highest Single Agent (EOHSA) based on the concept of nonlinear blending as described in detail by Peterson and Novick (2007) and Peterson (2010) [(2;3) [Peterson and Novick, 2007; Peterson, 2010]. […]

The test system of another assay is LS-1034. Briefly: Cell growth inhibition assay (Cell Titer Glo), LS-1034. Type of assay: cell-based. Particulars: Homo sapiens, 72 h; LS-1034 colon; KRAS_A146T; PIK3CA/PTEN WT; single agent, 3 days, mean ± std.
Source text: as §1, §2, §3

The subject of a further assay is Colo-205. Briefly: Cell growth inhibition assay (Cell Titer Glo), Colo-205. Type of assay: cell-based. Particulars: Homo sapiens, 72 h; Colo-205 colon; BRAF_V600E; PIK3CA/PTEN WT; single agent, 3 days, mean ± std.
Source text: as §1, §2, §3

For a further assay, the system named is NCI-H508. Briefly: Cell growth inhibition assay (Cell Titer Glo), NCI-H508. It counts as cell-based. The settings on record: Homo sapiens, 72 h; NCI-H508 colon; BRAF_G596R; PIK3CA_E545K; single agent, 3 days, mean ± std.
Source text: as §1, §2, §3

Another assay concerns MV522. Briefly: Cell growth inhibition assay (Cell Titer Glo), MV522. Type of assay: cell-based. The settings on record: Homo sapiens, 72 h; MV522 lung; BRAF_V600E; PIK3CA/PTEN WT; single agent, 3 days, mean ± std.
Source text: as §1, §2, §3

Another assay relates to NCI-H727. In words: Cell growth inhibition assay (Cell Titer Glo), NCI-H727. It counts as cell-based. Particulars: Homo sapiens, 72 h; NCI-H727 lung; KRAS_G12V; PIK3CA/PTEN WT; single agent, 3 days, mean ± std.
Source text: as §1, §2, §3

The test system of a further assay is NCI-H1155. Briefly: Cell growth inhibition assay (Cell Titer Glo), NCI-H1155. Type of assay: cell-based. The settings on record: Homo sapiens, 72 h; NCI-H1155 lung; KRAS_Q61H; PTEN_R233*; single agent, 3 days, mean ± std.
Source text: as §1, §2, §3

Consider `Cn1ncc(Cl)c1-c1cc(C(=O)N[C@H](CN)Cc2cccc(F)c2)sc1Cl` [Compound B, N-{(1S)-2-amino-1-[(3-fluorophenyl)methyl]ethyl}-5-chloro-4-(4-chloro-1-methyl-1H-pyrazol-5-yl)-2-thiophenecarboxamide], for which the IC50 is 2 to 7 µM in the assay with human lung tumor lines; 9.72 ± 0.139 µM in the assay on SW1463; above 8 µM in the assay on SW1573; 2.25 ± 1.18 µM in the assay on KM12; 7.31 ± 2.87 µM in the assay with NCI-H1792; below 1 µM in the assay with MDA-MB-175-VII. The IC50 in the assay on LS-1034 was 4.34 ± 1.77 µM; with Colo-205, 2.57 ± 0.137 µM.
On to `CC(=O)Nc1cccc(-n2c(=O)n(C3CC3)c(=O)c3c(Nc4ccc(I)cc4F)n(C)c(=O)c(C)c32)c1` [Compound A, N-{3-[3-cyclopropyl-5-(2-fluoro-4-iodo-phenylamino)-6,8-dimethyl-2,4,7-trioxo-3,4,6,7-tetrahydro-2H-pyrido[4,3-d]pyrimidin-1-yl]phenyl}acetamide], for which the IC50 was 0.002 to 0.329 µM with human lung tumor lines; 0.004 ± 0.003 µM in the assay on SW1463; above 1 µM in the assay on SW1573; 0.023 ± 0.002 µM in the assay with NCI-H508; 0.002 ± 0.001 µM with MV522; 0.023 ± 0.021 µM in the assay on KM12. In addition, the IC50 with NCI-H727 was 0.002 µM; in the assay with NCI-H1792, 0.053 ± 0.016 µM; in the assay with NCI-H1155, above 1 µM; with MDA-MB-175-VII, 0.096 ± 0.033 µM; in the assay on LS-1034, 0.005 µM; in the assay with Colo-205, 0.001 µM. In addition, the “sensitivity as a single agent (in words)” value with MDA-MB-175-VII (MDA-MB-175-VII cells) was “sensitive”.

For the origin of these results see patent US20160143913A1, “COMBINATION” (Novartis AG, priority 2009, published 2016).
